Test results from article PMC4764977, “AZD8797 is an allosteric non-competitive modulator of the human CX3CR1 receptor” (Biochemical Journal, 2016).
Where “and” joins values, the source holds several entries; their conditions need not be identical. Equal values may be shown once.

What was measured:
[1] = target: T1, CX3CR1 (RPMI-8226 cells endogenously expressing human CX3CR1) (Homo sapiens, UniProt P49238); assay: Cellix flow adhesion of RPMI-8226 cells to full-length CX3CL1; assay type: cell-based; details: flow 0.5 dyn·cm^−2, 15 min pre-incubation, n=3; read-out: IC50, prevention of capture (adhesion) of RPMI-8226 cells to CX3CL1
T1 construct: RPMI-8226 cells, a human B-lymphocyte cell line endogenously expressing human CX3CR1; CCL-155; host or cells: RPMI-8226
T1 sequence (P49238 1-355): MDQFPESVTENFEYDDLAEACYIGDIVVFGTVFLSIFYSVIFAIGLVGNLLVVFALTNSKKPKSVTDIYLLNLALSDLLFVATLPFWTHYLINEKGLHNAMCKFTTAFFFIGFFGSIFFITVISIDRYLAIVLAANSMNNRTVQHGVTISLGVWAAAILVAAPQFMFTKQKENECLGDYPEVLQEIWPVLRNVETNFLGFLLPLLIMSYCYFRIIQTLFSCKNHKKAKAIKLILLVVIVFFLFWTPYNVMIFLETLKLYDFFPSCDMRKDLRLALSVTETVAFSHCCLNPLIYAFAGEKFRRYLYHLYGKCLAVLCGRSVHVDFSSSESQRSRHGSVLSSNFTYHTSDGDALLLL
Method: Adhesion of a human B-lymphocyte cell line (RPMI-8226) or hWB leucocytes to full-length human CX3CL1 were monitored using a microfluidics Cellix VenaFlux platform and Vena 8 Biochips (Cellix). Each channel on the Vena 8 chip was coated with anti-His monoclonal antibody (R&D Systems) followed by His-tagged full-length CX3CL1 (R&D Systems) and blocked for non-specific binding (NSB) with BSA.
Cell preparations: RPMI-8226 cells were cultured in RPMI 1640 medium with GlutaMAX and 20% FBS (HyClone, Perbio). Before the experiment, cells were centrifuged at 320 g and resuspended to 5 ×10^6 cells·ml^−1 in RPMI 1640 with 1% FBS. hWB with heparin as anti-coagulant was collected from healthy donors and 5 μM DiOC6 was added. AZD8797 was diluted in a 3-fold series in DMSO starting at 3.3 or 30 μM and pre-incubated with RPMI-8226 cells for 15 min or whole blood for 60 min. DMSO concentration held constant for all AZD8797 concentrations (0.1% for the RPMI-8226 experiments and 0.3% for the whole blood experiments). […]
RPMI-8226 cells in RPMI 1640+1% FBS or whole blood were pumped through the channels at 0.5 dyn·cm^−2 and 2.25 dyn·cm^−2 respectively, for 3 min. Images for quantification were captured using a microscope. Cells adhering to channels were counted and the mean values across five images in each channel were used for calculating the concentration–response curves.

[2] = tested on: untransfected CHO-K1 cells; assay: Dynamic mass redistribution (DMR), untransfected CHO-K1 cells; assay type: cell-based, Chinese hamster
[3] = target: T2, CX3CR1 (Homo sapiens, UniProt P49238); assay: [35S]GTPγS accumulation assay, CHO-hCX3CR1 membranes; assay type: biochemical; set-up: host or cells: CHO-K1
T2 sequence (P49238 1-355): T1 sequence (P49238 1-355)
Method: Adherent CHO-K1 cells stably expressing human CX3CR1 (CHO-hCX3CR1) were grown in F12 medium with GlutaMAX, 10% FBS (Sigma–Aldrich) and 400 μg·ml^−1 geneticin and harvested at 80% confluency. Cells were washed in PBS and lysed with an Ultra-Turrax Homogenizer in 50 mM Tris/HCl (pH 7.4) and 1 mM EDTA with Complete™ protease inhibitor (Roche). After centrifugation at 1000 g for 10 min, membranes were collected by ultracentrifugation at 100000 g for 45 min at 4°C. The membranes were resuspended in 10 mM Tris/HCl (pH 7.4), 1 mM EDTA and 10% sucrose, divided into aliquots, frozen in liquid nitrogen and stored in −80°C. Protein concentration was determined using the BCA method (Thermo Fisher Scientific).
0.56 μCi·ml^−1 [^35S]GTPγS and EC80 of CX3CL1 were then added. The plate was incubated at 30°C for 1 h and subsequently unbound [^35S]GTPγS was separated from bound by vacuum filtration to a Printed Filtermat B (PerkinElmer) using a Skatron Micro96 harvester and dried at 50°C for 1 h. The filters were soaked with a melt-on scintillator sheet (MeltiLex, PerkinElmer), sealed using a MeltiLex heat sealer and measured in a MicroBeta Trilux reader (PerkinElmer).

[4] = target: T2, CX3CR1; assay: Dynamic mass redistribution (DMR), CHO-hCX3CR1 cells; assay type: cell-based; set-up: host or cells: CHO-K1
Method: CHO-hCX3CR1 cells were seeded at 12000 cells per well in DMEM with 10% FBS and RPMI-8226 cells at 8000 cells per well in RPMI 1640 medium with GlutaMAX and 20% FBS on 384-well fibronectin-coated EPIC™ biosensor plates (Corning) and cultured at 37°C for 24 h. At 18–24 h prior to compound treatment, the medium was replaced with serum-free medium with or without 100 ng·ml^−1 PTX. Cells were then washed with assay buffer (HBSS, 20 mM HEPES (pH 7.4) and 0.01% BSA) and allowed to equilibrate at 26°C for 1 h inside the EPIC™ plate reader. Following equilibration, a baseline scan was performed before adding AZD8797 or CX3CL1 using a CyBi-Well vario (CyBio). Dynamic mass redistribution (DMR) was then measured during a 60 min scan. As in the [^35S]GTPγS binding assay, the final DMSO concentration was held constant at 1%.

[5] = target: T2, CX3CR1; assay: PathHunter β-arrestin recruitment assay, CHO-K1 CX3CR1 β-arrestin cell line; assay type: cell-based; set-up: host or cells: CHO-K1
Method: β-Arrestin recruitment was measured using the PathHunter™ enzyme fragment complementation assay from DiscoveRx and carried out according to the manufacturer's instructions. In short, 3500 cells per well in Opti-MEM were incubated together with different concentrations of AZD8797 and CX3CL1 in a 384-well plate. After 90 min of incubation at 37°C, detection reagent was added and incubation continued for 1 h at room temperature, before reading the plate with a Victor^2 luminescence plate reader (PerkinElmer). As in the [^35S]GTPγS binding assay, the final DMSO concentration was held constant at 1%.

[6] = target: T2, CX3CR1; assay: [3H]AZD8797 kinetic radioligand binding, CHO-hCX3CR1 membranes; set-up: host or cells: CHO-K1
Method: Assays were performed as described under equilibrium binding studies with the additions stated below. Association experiments on [^3H]AZD8797 were performed by adding 1 · Kd of radioligand in assay buffer in a 96-well plate. The reactions were started by addition of CHO-hCX3CR1 membranes at different time points and then incubated for between 1.5 min and 2 h at room temperature before being filtered. For the [^3H]AZD8797 dissociation experiments 1 · Kd of radioligand was incubated with CHO-hCX3CR1 membranes for 1 h at room temperature before starting the dissociation with the addition of 10 μM unlabelled AZD8797. The reactions were incubated for between 2.5 min and 3 h at room temperature before being filtered.
For the association experiments, the radioligand data were fitted to the following monophasic exponential association equation and the association rate (kon) was calculated using the added amounts of radioligand (L) and dissociation rate (koff) as constants. koff was measured in separate dissociation experiments.
The dissociation data were fitted to the monophasic exponential decay equation: […]
where Y0 is the binding (cpm) at time zero, X is the time and NS is the (non-specific) binding at infinite times. Half-life could then be calculated by dividing ln (2) by koff. Multiple compound dissociation data were fitted to the biphasic exponential decay equation: […]

[7] = target: T2, CX3CR1; assay: 125I-CX3CL1 competition assay, HEK293 cells co-transfected with Gqi5-protein (Karlstrom et al.); assay type: binding; set-up: host or cells: CHO-K1; details: HEK293 Gqi5 vs CHO-hCX3CR1 membranes

SMILES: CC(C)C[C@H](CO)Nc1nc(S[C@@H](C)c2ccccc2)nc2nc(N)sc12 [AZD8797]
- IC50 [1]: 6 nM and 5.8 nM
- DMR response in untransfected cells [2]: 38 % of AZD8797 effect in transfected cells
- DMR response in untransfected cells (words) [2]: only weakly responded
- Agonistic effect in [35S]GTPγS accumulation ([3]; compound alone, results not shown): No agonistic effect
- IC50 ([3]; response from 2 nM CX3CL1 (EC80), n > 24, read-out: IC50, inhibition of CX3CL1-induced [35S]GTPγS accumulation): 340 nM
- Concentration needed for agonist response vs concentration needed to block CX3CL1 binding and functional response in membranes ([4]; CHO-hCX3CR1 cells vs purified membranes): more than 10 fold
- Effect of PTX treatment on DMR signal ([4]; CHO-hCX3CR1 cells, 100 ng·ml^−1 PTX): reduced
- Maximum effect, DMR ([4]; CHO-hCX3CR1 cells, compound alone, no plateau, n=3): 79 % of CX3CL1
- EC50 ([4]; CHO-hCX3CR1 cells, compound alone, no plateau, n=3, read-out: Potency, DMR agonism): > 5000 nM
- Antagonist response in DMR ([4]; challenging EC80 of CX3CL1 with different concentrations, cell line not specified, results not shown): could not measure any antagonist response
- Increase of CX3CL1 efficacy in β-arrestin recruitment ([5]; 16 and 140 nM AZD8797, efficacy enhanced, not potency): ~2 fold
- Effect on β-arrestin recruitment, compound alone ([5]; AZD8797 alone): no effect
- CX3CL1-induced β-arrestin recruitment at higher concentrations ([5]; higher concentrations of AZD8797): almost abolished
- koff ([6]; dissociation started with 10 μM unlabelled AZD8797, n=2): 0.0007 s⁻¹
- kon ([6]; from kobs (n=5) and koff, room temperature): 233000 M⁻¹ s⁻¹
- Dissociation half-life ([6]; from koff): approximately 17 min
- Kd ([6]; koff/kon, read-out: Kd from rate constants): 2.9 nM
- Higher affinity than in this paper's 125I-CX3CL1 competition assay [7]: ~100 fold
